Literature values in patent US20260248126A1, “BIOCIDE” (PURGOS APS, priority 2020, published 2026).

Settings: cited from earlier work

[Cl-].[Na+] [table salt (NaCl), NaCl]
LD50 (rat, oral): 3000 mg
